# Key:
# [1] = molecular target: T1, RARγ (Homo sapiens, UniProt P13631); assay: Retinoid binding assay, RARγ; conditions: read-out: Binding Affinity IC50 RAR γ
# T1 construct: The DEF domains of RAR's and the full length RXR's, expressed in E.coli; made in house; host or cells: E. coli
# T1 sequence (P13631 185-419 limits assumed): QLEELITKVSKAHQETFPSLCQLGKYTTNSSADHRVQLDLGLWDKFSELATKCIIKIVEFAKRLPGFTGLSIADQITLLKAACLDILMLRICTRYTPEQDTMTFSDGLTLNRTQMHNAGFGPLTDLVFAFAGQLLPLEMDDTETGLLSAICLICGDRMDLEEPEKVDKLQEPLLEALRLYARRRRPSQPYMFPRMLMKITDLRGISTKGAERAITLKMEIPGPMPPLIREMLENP
# Description: (§1) The DEF domains of RAR's and the full length RXR's, expressed in E.coli, are used to measure competitive retinoid binding. […] 9-cis retinoic acid (for RXR's), respectively. […] Separation of bound from free radioactivity is achieved by charcoal/dextran (RAR's) or by desalting columns (RXR's). […] Retinoid Activation Assays
# [2] = molecular target: T2, RXRα (Homo sapiens, UniProt P19793); assay: Retinoid activation assay, RXRα (Schneider SL-3 cells, luciferase reporter); format: cell-based; conditions: read-out: Activation EC50 RXR α
# T2 sequence (P19793 1-462): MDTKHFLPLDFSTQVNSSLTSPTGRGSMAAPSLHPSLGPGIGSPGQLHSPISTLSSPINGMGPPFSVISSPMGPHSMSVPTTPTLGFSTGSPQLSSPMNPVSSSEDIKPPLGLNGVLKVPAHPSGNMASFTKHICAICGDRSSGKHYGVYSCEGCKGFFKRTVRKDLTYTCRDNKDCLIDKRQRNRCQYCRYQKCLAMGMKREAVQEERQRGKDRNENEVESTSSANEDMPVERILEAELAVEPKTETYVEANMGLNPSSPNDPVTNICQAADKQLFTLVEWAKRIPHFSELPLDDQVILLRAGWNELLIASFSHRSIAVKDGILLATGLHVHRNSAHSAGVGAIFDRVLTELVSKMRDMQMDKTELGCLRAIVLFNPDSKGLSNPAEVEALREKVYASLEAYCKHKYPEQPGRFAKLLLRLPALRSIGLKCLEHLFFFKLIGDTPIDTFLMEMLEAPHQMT
# Method: (§2) Full length RXR cDNA is used for transfection. As reporter system, the luciferase gene is used in a construct with three copies of a RXR response element from rat CRBP gene, (formerly RARE from betaRAR gene), fused to alcoholdehydrogenase gene promoter in the plasmid pGL2-basic. Schneider SL-3 cells from Drosophila are transiently transfected 3-4 h before the experiment by the Ca-phosphate-DNA coprecipitation method. […] At the end of the incubation, the cell supernatants are assayed for luciferase activity. Results are given as EC50 (nM), the concentration leading to half-maximal activation.
# [3] = molecular target: T3, RXRγ (Homo sapiens, UniProt P48443); assay: Retinoid activation assay, RXRγ (Schneider SL-3 cells, luciferase reporter); format: cell-based; conditions: read-out: Activation EC50 RXR γ
# T3 sequence (P48443 1-463): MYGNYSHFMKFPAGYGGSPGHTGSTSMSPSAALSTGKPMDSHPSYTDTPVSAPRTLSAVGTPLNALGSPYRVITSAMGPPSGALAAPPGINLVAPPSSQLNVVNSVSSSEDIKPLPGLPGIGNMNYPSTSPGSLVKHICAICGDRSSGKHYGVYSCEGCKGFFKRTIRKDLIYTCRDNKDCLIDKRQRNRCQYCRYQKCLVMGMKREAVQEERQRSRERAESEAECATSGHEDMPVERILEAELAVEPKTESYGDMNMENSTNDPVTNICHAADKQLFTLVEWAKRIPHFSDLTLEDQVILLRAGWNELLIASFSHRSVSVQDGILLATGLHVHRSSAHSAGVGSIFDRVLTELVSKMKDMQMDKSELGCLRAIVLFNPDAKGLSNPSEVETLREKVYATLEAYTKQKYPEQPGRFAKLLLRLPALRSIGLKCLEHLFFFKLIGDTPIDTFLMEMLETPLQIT
# Method: as §2
# [4] = molecular target: T3, RXRγ; assay: Retinoid binding assay, RXRγ; design: made in house; host or cells: E. coli; conditions: [3H] 9-cis retinoic acid 20 nM; read-out: Binding Affinity IC50 RXR γ
# Description: as §1
# [5] = molecular target: T4, RARα (Homo sapiens, UniProt P10276); assay: Retinoid binding assay, RARα; design: The DEF domains of RAR's and the full length RXR's, expressed in E.coli; made in house; host or cells: E. coli; conditions: read-out: Binding Affinity IC50 RAR α
# T4 sequence (P10276 183-417 limits assumed): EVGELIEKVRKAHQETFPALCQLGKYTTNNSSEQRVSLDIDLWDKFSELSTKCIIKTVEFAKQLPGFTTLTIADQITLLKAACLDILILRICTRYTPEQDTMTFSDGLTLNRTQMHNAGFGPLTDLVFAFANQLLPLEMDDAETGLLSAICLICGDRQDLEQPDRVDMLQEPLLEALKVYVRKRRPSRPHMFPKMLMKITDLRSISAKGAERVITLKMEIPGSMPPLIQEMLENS
# Description: as §1
# [6] = molecular target: T5, PPARγ/RXRα Heterodimer (Homo sapiens, UniProt P19793); assay: PPARγ/RXRα heterodimer activation (transactivation) assay; format: cell-based
# T5 construct: co-transfected with plasmids expressing the full length RXR heteropartner receptor; expressed in transfected cells
# T5 sequence (P19793 1-462): T2 sequence (P19793 1-462)
# T5 sequence (P37231 1-505 partner): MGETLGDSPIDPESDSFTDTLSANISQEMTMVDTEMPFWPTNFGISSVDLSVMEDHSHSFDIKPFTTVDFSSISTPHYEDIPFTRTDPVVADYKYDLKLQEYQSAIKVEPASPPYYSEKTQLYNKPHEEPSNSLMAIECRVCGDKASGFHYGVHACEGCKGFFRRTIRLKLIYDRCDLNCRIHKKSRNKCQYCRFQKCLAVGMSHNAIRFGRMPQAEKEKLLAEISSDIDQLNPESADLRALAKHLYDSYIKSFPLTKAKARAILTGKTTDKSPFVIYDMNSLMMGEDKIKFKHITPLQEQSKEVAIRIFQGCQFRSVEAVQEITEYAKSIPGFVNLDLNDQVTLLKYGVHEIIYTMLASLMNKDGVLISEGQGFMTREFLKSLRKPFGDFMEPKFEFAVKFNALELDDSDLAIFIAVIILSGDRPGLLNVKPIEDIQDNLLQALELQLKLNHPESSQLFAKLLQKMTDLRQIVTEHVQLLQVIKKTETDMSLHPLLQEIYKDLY
# Description: Nuclear hormone receptor (NHR) ligand dependent transcriptional transactivation assay.
# Heterodimer reporter assays are potentially more important selection criteria for synthetic agonistic NHR ligands as they embody a more natural situation. Basically plasmids expressing the recombinant full length NHR are co-transfected with plasmids expressing the full length RXR heteropartner receptor and a reporter plasmid containing several copies of the natural responsive elements for the respective NHR driving the luciferase reporter gene.
Structure (SMILES),IC50 [1],EC50 [2],EC50 [3],IC50 [4],IC50 [5],EC50 [6]
"CCCCOc1c([C@@H]2C[C@@H]2/C=C/C(C)=C/C(=O)O)cc(C(C)(C)C)cc1C(C)(C)C (racemic) [Compound 16, (2E,4E)-(1RS,2RS)-5-[2-(3,5-Di-tert-butyl-2-butoxy-phenyl)-cyclopropyl]-3-methyl-penta-2,4-dienoic acid]",> 10000 nM,≥ 10000 nM,≥ 10000 nM,82 nM,> 10000 nM,> 10000 nM
"CCOc1c([C@@H]2C[C@@H]2/C=C/C(C)=C/C(=O)O)cc(C(C)(C)C)cc1C(C)(C)C (racemic) [Compound 17, (2E,4E)-(1RS,2RS)-5-[2-(3,5-Di-tert-butyl-2-ethoxy-phenyl)-cyclopropyl]-3-methyl-penta-2,4-dienoic acid]",> 10000 nM,≥ 10000 nM,≥ 10000 nM,69 nM,> 10000 nM,> 10000 nM
"CC1=C(/C=C/C2=C(/C=C/C(C)=C/C(=O)O)CCCCC2)C(C)(C)CCC1 [Compound 1, (2E,4E)-3-methyl-5-[2-[(E)-2-(2,6,6-trimethyl-1-cyclohexen-1-yl)ethenyl]-1-cyclohepten-1-yl]-2,4-pentadienoic acid]",> 10000 nM,1.4 nM,≥ 10000 nM,150 nM,> 10000 nM,70 nM
CC(/C=C/c1sccc1-c1ccc2c(c1)C(C)(C)CCC2(C)C)=C\C(=O)O [Compound 9],3600 nM,2.5 nM,90 nM,230 nM,3400 nM,38 nM
"CCCCOc1c(\C(C)=C/C=C/C(C)=C/C(=O)O)cc(C(C)(C)C)cc1C(C)(C)C [Compound 15, (2E,4E,6Z)-7-[2-butoxy-3,5-bis(1,1-dimethylethyl)phenyl]-3-methyl-2,4,6-octatrienoic acid]",2700 nM,≥ 10000 nM,≥ 10000 nM,47 nM,4200 nM,> 10000 nM
CC1=C(C#CC2=C(/C=C/C(C)=C/C(=O)O)CCCCC2)C(C)(C)CCC1 [Compound 18],> 10000 nM,≥ 10000 nM,≥ 10000 nM,65 nM,> 10000 nM,> 10000 nM
"CCOc1c(\C(C)=C/C=C/C(C)=C/C(=O)O)cc(C(C)(C)C)cc1C(C)(C)C [Compound 21, (2E,4E,6Z)-7-[3,5-Bis(1,1-dimethylethyl)-2-ethoxyphenyl]-3-methyl-2,4,6-octatrienoic acid/ethyl ester]",> 10000 nM,≥ 10000 nM,≥ 10000 nM,57 nM,> 10000 nM,1.25 nM

# The remaining lines, values ahead:
IC50 [1],EC50 [2],EC50 [3],IC50 [4],IC50 [5],EC50 [6],Structure (SMILES)
7500 nM,3.5 nM,50 nM,127 nM,> 10000 nM,–,"CC(/C=C/[C@@H]1C[C@@H]1c1ccc2c(c1)C(C)(C)CCC2(C)C)=C\C(=O)O (racemic) [Compound 4, (2E,4E)-3-methyl-5-[(1RS,2RS)-2-(5,5,8,8-tetramethyl-5,6,7,8-tetrahydro-naphthalen-2-yl)-cyclopropyl]-penta-2,4-dienoic acid]"
5300 nM,0.8 nM,≥ 10000 nM,160 nM,1600 nM,1.5 nM,"CC1=C(/C=C/c2sccc2/C=C/C(C)=C/C(=O)O)C(C)(C)CCC1 [Compound 5, (2E,4E)-3-Methyl-5-[2-[(E)-2-(2,6,6-trimethyl-1-cyclohexen-1-yl)ethenyl]-3-thienyl]-2,4-pentadienoic acid]"
> 10000 nM,19 nM,140 nM,240 nM,> 10000 nM,–,"CC(/C=C/C1=C(c2ccc3c(c2)C(C)(C)CCC3(C)C)CCCC1)=C\C(=O)O [Compound 6, (2E,4E)-3-Methyl-5-[2-(5,5,8,8-tetramethyl-5,6,7,8-tetrahydro-naphthalen-2-yl)-cyclohex-1-enyl]-penta-2,4-dienoic acid]"
6300 nM,6 nM,400 nM,970 nM,> 10000 nM,–,"CC(/C=C/c1ccccc1-c1ccc2c(c1)C(C)(C)CCC2(C)C)=C\C(=O)O [Compound 7, (2E,4E)-3-methyl-5-[2-(5,5,8,8-tetramethyl-5,6,7,8-tetrahydro-naphthalen-2-yl)-phenyl]-penta-2,4-dienoic acid]"
6600 nM,9 nM,150 nM,120 nM,3500 nM,7.7 nM,"CC(/C=C/C1=C(c2ccc3c(c2)C(C)(C)CCC3(C)C)CCC1)=C\C(=O)O [Compound 12, (2E,4E)-3-Methyl-5-[2-(5,5,8,8-tetramethyl-5,6,7,8-tetrahydro-naphthalen-2-yl)-cyclopent-1-enyl]-penta-2,4-dienoic acid]"
5300 nM,1.5 nM,400 nM,147 nM,6500 nM,23 nM,"C/C(=C/C=C/C(C)=C/C(=O)O)c1cc2c(cc1C)C(C)(C)CCCC2 [Compound 13, (2E,4E,6Z)-3-Methyl-7-(3,5,5,-trimethyl-6,7,8,9-tetrahydro-5H-benzocyclohepten-2-yl)-octa-2,4,6-trienoic acid]"
–,6 nM,50 nM,140 nM,–,7 nM,"CC1=C(/C=C/C2=C(/C=C/C(C)=C/C(=O)O)CCC2)C(C)(C)CCC1 [Compound 14, (2E,4E)-3-Methyl-5-[2-[(E)-2-(2,6,6-trimethyl-1-cyclohexen-1-yl)ethenyl]-1-cyclopenten-1-yl]-2,4-pentadienoic acid]"

# Reference: patent publication US20080255206A1, “Rxr Agonists and Antagonists, Alone or in Combination with Ppar Ligands, in the Treatment of Metabolic and Cardiovascular Diseases” (priority 2005, published 2008)
